Reference: ChEMBL document CHEMBL1201862, “PubChem BioAssay data set” (2004)
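96-well plates; 48 h exposure; 5 concentrations. Endpoints by linear interpolation between flanking doses. Not reached: highest tested concentration assigned. GI50 = concentration required for 50% inhibition of growth.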 Calls of active or inactive are those of the source. No stated cut-off is given here; in the data, active = GI50 up to about 1.1 µM and inactive = higher.

How the values were obtained:
Assay in all cases: DTP human tumour cell line panel, 48 h
A549 = test system: A549
CAKI-1 = test system: CAKI-1
HL-60 = test system: HL-60
HOP-92 = test system: HOP-92
HT-29 = test system: HT-29
KM12 = test system: KM12
LOX IMVI = test system: LOX IMVI
MOLT-4 = test system: MOLT-4
NCI-H226 = test system: NCI-H226
NCI-H23 = test system: NCI-H23
NCI-H460 = test system: NCI-H460
OVCAR-3 = test system: OVCAR-3
OVCAR-5 = test system: OVCAR-5
SF-295 = test system: SF-295
SK-MEL-5 = test system: SK-MEL-5
SN12C = test system: SN12C
SNB-19 = test system: SNB-19
UO-31 = test system: UO-31
RXF 393 = test system: RXF 393
SNB-75 = test system: SNB-75

| Structure (SMILES) | GI50 (A549) | GI50 (CAKI-1) | GI50 (HL-60) | GI50 (HOP-92) | GI50 (HT-29) | GI50 (KM12) | GI50 (LOX IMVI) | GI50 (MOLT-4) | GI50 (NCI-H226) | GI50 (NCI-H23) | GI50 (NCI-H460) | GI50 (OVCAR-3) | GI50 (OVCAR-5) | GI50 (SF-295) | GI50 (SK-MEL-5) | GI50 (SN12C) | GI50 (SNB-19) | GI50 (UO-31) | GI50 (RXF 393) | GI50 (SNB-75) |
| --- | --- | --- | --- | --- | --- | --- | --- | --- | --- | --- | --- | --- | --- | --- | --- | --- | --- | --- | --- | --- |
| COC(=O)C#Cc1cccc(OC)c1OC | 37.5 µM (inactive) | 28.6 µM (inactive) | 33 µM (inactive) | 25.8 µM (inactive) | 27 µM (inactive) | 45.4 µM (inactive) | 33.7 µM (inactive) | 14 µM (inactive) | 43.3 µM (inactive) | 41.3 µM (inactive) | 48.1 µM (inactive) | 41.1 µM (inactive) | 22.5 µM (inactive) | 40.5 µM (inactive) | 29.6 µM (inactive) | 48.1 µM (inactive) | 60.3 µM (inactive) | 20.4 µM (inactive) |  |  |
| N=C(N)Nc1ncccc1[N+](=O)[O-] | > 100 µM (inactive) | > 100 µM (inactive) | 19.7 µM (inactive) | > 100 µM (inactive) | 40.6 µM (inactive) | 57.4 µM (inactive) | 33.1 µM (inactive) | > 100 µM (inactive) | > 100 µM (inactive) | > 100 µM (inactive) | 51.8 µM (inactive) | 25.1 µM (inactive) | > 100 µM (inactive) | > 100 µM (inactive) | 38.9 µM (inactive) | > 100 µM (inactive) | > 100 µM (inactive) | > 100 µM (inactive) | > 100 µM (inactive) | > 100 µM (inactive) |
| COc1nc(Cl)c(Cl)c(Cl)n1.COc1nc(Cl)nc(Cl)c1Cl | 18.1 µM (inactive) | 0.0254 µM (active) | 5.47 µM (inactive) | 2.31 µM (inactive) | 6.9 µM (inactive) | 0.485 µM (active) | 2.66 µM (inactive) | 0.603 µM (active) | 42.5 µM (inactive) | 6.71 µM (inactive) | 5.6 µM (inactive) | 3.95 µM (inactive) | 30.9 µM (inactive) | 7.16 µM (inactive) | 15.2 µM (inactive) | 23.3 µM (inactive) | 4.97 µM (inactive) | 0.893 µM (active) | 10.7 µM (inactive) | 10.3 µM (inactive) |
| CCCCOc1ccc(OCCCCCCCCCC[N+](C)(C)C)cc1 | 3.55 µM (inactive) | 3.73 µM (inactive) | 0.39 µM (active) | 1.33 µM (inactive) | 0.452 µM (active) | 1.48 µM (inactive) | 1.53 µM (inactive) | 1.38 µM (inactive) | 4.26 µM (inactive) | 1.95 µM (inactive) | 2.54 µM (inactive) | 2.1 µM (inactive) | 4.65 µM (inactive) | 6.17 µM (inactive) | 1.91 µM (inactive) | 3.62 µM (inactive) | 7.6 µM (inactive) | 8.02 µM (inactive) | 0.796 µM (active) | 2.17 µM (inactive) |
| N/C(=C\c1ccc(/C=C(\NC(=O)c2ccccc2)c2nc3c([nH]2)C(=O)c2ccccc2C3=O)cc1)c1nc2c([nH]1)C(=O)c1ccccc1C2=O | 14.2 µM (inactive) | 14.3 µM (inactive) | 10 µM (inactive) | 7.83 µM (inactive) | 14.7 µM (inactive) | 13.7 µM (inactive) | 18.1 µM (inactive) | 6.7 µM (inactive) | 11.5 µM (inactive) | 14.3 µM (inactive) | 17.5 µM (inactive) | 13.6 µM (inactive) | 18.9 µM (inactive) | 16.5 µM (inactive) | 16.5 µM (inactive) | 14.3 µM (inactive) | 12.6 µM (inactive) | 4.84 µM (inactive) | 11.8 µM (inactive) | 3.65 µM (inactive) |
| O=c1c(Cc2c(O)oc3cc(O)ccc3c2=O)c(O)oc2cc(O)ccc12 | > 100 µM (inactive) | > 100 µM (inactive) | > 100 µM (inactive) | > 100 µM (inactive) | > 100 µM (inactive) |  | > 100 µM (inactive) | > 100 µM (inactive) | > 100 µM (inactive) | > 100 µM (inactive) | > 100 µM (inactive) | > 100 µM (inactive) | > 100 µM (inactive) | > 100 µM (inactive) | 41.8 µM (inactive) | > 100 µM (inactive) | > 100 µM (inactive) | 31.9 µM (inactive) | > 100 µM (inactive) | 53.5 µM (inactive) |
| OCCNCN(CNCCO)c1nc(N(CNCCO)CNCCO)nc(N(CNCCO)CNCCO)n1 | 0.0711 µM (active) |  |  | 0.0743 µM (active) | > 0.4 µM (active) | 0.137 µM (active) | 0.0916 µM (active) | 0.0873 µM (active) | 0.0802 µM (active) | 0.0655 µM (active) | 0.118 µM (active) | 0.0908 µM (active) | 0.146 µM (active) | 0.082 µM (active) |  | 0.131 µM (active) | 0.0708 µM (active) | 0.0851 µM (active) | 0.0676 µM (active) |  |
| CC1(C)C(O)C[C@@H](O)[C@@]2(C)C1CC[C@]1(C)C2C[C@@H](O)[C@@H]2C([C@@]3(C)CC[C@@H](C(C)(C)O)O3)CCC21C (some centres not stated) | 18.9 µM (inactive) | 18.3 µM (inactive) | 14.2 µM (inactive) | 9.68 µM (inactive) | 17.6 µM (inactive) | 15.9 µM (inactive) | 11 µM (inactive) | 22 µM (inactive) | 19.5 µM (inactive) | 17.4 µM (inactive) | 18.9 µM (inactive) | 15.7 µM (inactive) | 16.1 µM (inactive) | 15.7 µM (inactive) | 10.4 µM (inactive) | 13.8 µM (inactive) | 14.2 µM (inactive) | 17.5 µM (inactive) | 13.4 µM (inactive) | 15 µM (inactive) |
| CCOC(=O)/C=C(\C)c1ccc(OC)cc1 | > 100 µM (inactive) | > 100 µM (inactive) | > 100 µM (inactive) | > 100 µM (inactive) | 88.9 µM (inactive) | > 100 µM (inactive) | > 100 µM (inactive) |  | > 100 µM (inactive) | > 100 µM (inactive) | > 100 µM (inactive) |  | > 100 µM (inactive) | > 100 µM (inactive) | > 100 µM (inactive) | > 100 µM (inactive) | > 100 µM (inactive) | > 100 µM (inactive) | > 100 µM (inactive) | > 100 µM (inactive) |
| CCCCCCCCCCOC(=O)NCCC | 36.6 µM (inactive) | 35.5 µM (inactive) | 13.9 µM (inactive) | 11.6 µM (inactive) | 21.4 µM (inactive) | 36.1 µM (inactive) | 18.2 µM (inactive) | 17.2 µM (inactive) |  | 33.1 µM (inactive) | 25.8 µM (inactive) | 33.3 µM (inactive) | 24.4 µM (inactive) | 38.5 µM (inactive) | 23.9 µM (inactive) | 28 µM (inactive) | 34.4 µM (inactive) | 16.2 µM (inactive) | 15.9 µM (inactive) | 49.2 µM (inactive) |
| Nc1nc(SCCNC(=O)CCc2ccc(O)c(I)c2)nc2c1ncn2C1OC(CO)C(O)C1O (configuration not stated) | > 100 µM (inactive) |  | > 100 µM (inactive) | > 100 µM (inactive) | > 100 µM (inactive) | > 100 µM (inactive) |  | > 100 µM (inactive) | > 100 µM (inactive) | > 100 µM (inactive) | > 100 µM (inactive) | > 100 µM (inactive) | > 100 µM (inactive) | > 100 µM (inactive) | > 100 µM (inactive) | > 100 µM (inactive) | > 100 µM (inactive) |  | > 100 µM (inactive) | > 100 µM (inactive) |
| COc1ccc(/C=N/N=C(N)N)c(C(=O)O)c1OC | > 100 µM (inactive) | > 100 µM (inactive) | > 100 µM (inactive) |  | > 100 µM (inactive) | > 100 µM (inactive) |  | > 100 µM (inactive) |  | > 100 µM (inactive) | > 100 µM (inactive) | > 100 µM (inactive) |  | > 100 µM (inactive) | > 100 µM (inactive) | > 100 µM (inactive) | > 100 µM (inactive) | > 100 µM (inactive) | > 100 µM (inactive) | > 100 µM (inactive) |
| CC(=O)NC1=C[C@@H]([C@H]2COC(C)(C)O2)OC1=O | > 100 µM (inactive) | > 100 µM (inactive) | > 100 µM (inactive) | > 100 µM (inactive) | > 100 µM (inactive) | > 100 µM (inactive) | > 100 µM (inactive) | > 100 µM (inactive) | > 100 µM (inactive) | > 100 µM (inactive) | > 100 µM (inactive) | > 100 µM (inactive) | > 100 µM (inactive) | > 100 µM (inactive) | > 100 µM (inactive) | > 100 µM (inactive) | > 100 µM (inactive) | > 100 µM (inactive) | > 100 µM (inactive) | > 100 µM (inactive) |
| CCOC(=O)c1csc(NC(=O)CCN(CC)CC)n1 | 55 µM (inactive) | 20.5 µM (inactive) | 39.1 µM (inactive) | 24.5 µM (inactive) | 23.8 µM (inactive) | 23.5 µM (inactive) | 33.2 µM (inactive) | 32.7 µM (inactive) | 30.3 µM (inactive) | 64.7 µM (inactive) | > 100 µM (inactive) | 26.8 µM (inactive) | > 100 µM (inactive) | > 100 µM (inactive) | 45.8 µM (inactive) |  | > 100 µM (inactive) | 35.7 µM (inactive) | 49.4 µM (inactive) | 28.1 µM (inactive) |
